These results are taken from US8017656B2, “Organic sulfur compounds and use thereof” (Sumitomo Chemical Company, Limited, priority 2005, dated 2011).

Format in all cases: in vivo
Experiment [1] deals with Musca domestica. Description: Test Example 2: filter paper/sucrose bait test against housefly imagoes. Conditions: read-out: rate of dead pests. How it is done:
On the bottom of a polyethylene cup having a diameter of 5.5 cm, a filter paper having the same diameter was laid, and 0.7 ml of the above test solution was added dropwise on the filter paper, followed by putting 30 mg of sucrose on it uniformly as a bait. Ten female Musca domestica imagoes were set free in the polyethylene cup and covered it with a lid. After 24 hours, the number of surviving and dead Musca domestica was examined and the rate of dead pests was calculated.

Experiment [2] has as its system Blattella germanica. Put plainly: Test Example 3: filter paper/sucrose bait test against German cockroach imagoes. The note with it: Blattella germanica, 144 h, read-out: rate of dead pests. As to the method:
On the bottom of a polyethylene cup having a diameter of 5.5 cm, a filter paper having the same diameter was laid, and 0.7 ml of the above test solution was added dropwise on the filter paper, followed by putting 30 mg of sucrose on it uniformly as a bait. Two male Blattella germanica imagoes were set free in the polyethylene cup and covered it with a lid. After 6 days, the number of surviving and dead Blattella germanica was examined and the rate of dead pests was calculated.

The subject of experiment [3] is Culex pipiens pallens. Put plainly: Test Example 4: mosquito larvae test in treated water. The note with it: 24 h, read-out: rate of dead pests. How it is done: 0.7 ml of above test solution was added to 100 ml of ion exchanged water (active ingredient concentration: 3.5 ppm). Twenty last-instar larvae of Culex pipiens pallens were set free in the solution. After one day, the number of surviving and dead Culex pipiens pallens was examined and the rate of dead pests was calculated.

Where [4] appears, read: 500 ppm test solution, 0.7 ml on filter paper with 30 mg sucrose, ten female imagoes, after 24 hours.
The mark [5] stands for this setting: 500 ppm test solution, 0.7 ml on filter paper with 30 mg sucrose, two male imagoes, after 6 days.
Where [6] appears, read: active ingredient concentration 3.5 ppm in water, twenty last-instar larvae, after one day.

Like-named read-outs stand apart in the source and are kept apart here. Where only a bound is given, the exact number is not on record here.

On to `CC(CCC(F)(F)C(F)(F)F)(C(N)=S)S(=O)(=O)CCC(F)(F)F` (stereo not drawn) [(49)], for which the pest or weed control at 500 ppm was no less than 70% in experiment [1] (setting [4]) and 100% in experiment [2] (setting [5]). In addition, the pest or weed control at 3.5 ppm in experiment [3] (setting [6]) is no less than 90%.
The corresponding values for `CC(CCC(F)(F)C(F)(F)F)(SCCC(F)(F)F)C(N)=O` (stereo not drawn) [(70)] are no less than 70%, 100% and no less than 90%.
As for `COC(=O)C(Cl)(CCC(F)(F)C(F)(F)C(F)(F)F)S(=O)(=O)CCC(F)(F)C(F)(F)F` (stereo not drawn) [(96)], the pest or weed control at 500 ppm is no less than 70% in experiment [1] (24 h) and 100% in experiment [2]. In addition, in experiment [3], the pest or weed control at 3.5 ppm was no less than 90%.
For the molecule `CN(C)C(=O)C(F)(CCC(F)(F)C(F)(F)F)S(=O)(=O)CCC(F)(F)F` (stereo not drawn) [(74)], the figures for the pest or weed control at 500 ppm in experiment [1] (setting [4]) and in experiment [2] (setting [5]) were no less than 70% and 100%, respectively. Further, the pest or weed control at 3.5 ppm in experiment [3] (setting [6]) is no less than 90%.
In the case of `CC(C#N)(CCC(F)(F)C(F)(F)F)SCCC(F)(F)F` (stereo not drawn) [(50)], the pest or weed control at 500 ppm in experiment [1] (setting [4]) is no less than 70%; in experiment [2] (setting [5]) it was 100%. The pest or weed control at 3.5 ppm in experiment [3] (setting [6]) is no less than 90%.
For the molecule `CC(C)C(C#N)(CCC(F)(F)C(F)(F)F)S(=O)(=O)CCC(F)(F)F` (stereo not drawn) [(17)], the results for the pest or weed control at 500 ppm in experiment [1] (setting [4]) and in experiment [2] (setting [5]) were no less than 70% and 100%, respectively. In experiment [3] (setting [6]), the pest or weed control at 3.5 ppm is no less than 90%.
The corresponding values for `N#CC(CCC(F)(F)F)S(=O)(=O)CCC(F)(F)C(F)(F)F` (stereo not drawn) [(53)] are no less than 70%, 100% and no less than 90%.
The corresponding values for `CNC(=O)C(CCC(F)(F)C(F)(F)F)S(=O)(=O)CCC(F)(F)F` (stereo not drawn) [(32)] are no less than 70%, 100% and no less than 90%.
In the case of `CC(C#N)(CC(F)(F)C(F)(F)C(F)(F)F)S(=O)(=O)CCC(F)(F)F` (stereo not drawn) [(12)], the pest or weed control at 500 ppm is no less than 70% in experiment [1] (24 h) and 100% in experiment [2]. For the same molecule, in experiment [3], the pest or weed control at 3.5 ppm is no less than 90%.
`N#CC(CCC(F)(F)C(F)(F)F)S(=O)(=O)CCC(F)(F)F` (stereo not drawn) [(3)]: the figures for the pest or weed control at 500 ppm in experiment [1] (setting [4]) and in experiment [2] (setting [5]) were no less than 70% and 100%, respectively. The pest or weed control at 3.5 ppm in experiment [3] (setting [6]) was no less than 90%.
On to `N#CC(F)(CCC(F)(F)C(F)(F)F)S(=O)(=O)CCC(F)(F)F` (stereo not drawn) [(20)], for which the pest or weed control at 500 ppm in experiment [1] (setting [4]) is no less than 70%; in experiment [2] (setting [5]), 100%. The pest or weed control at 3.5 ppm in experiment [3] (setting [6]) was no less than 90%.
The matching figures for `COC(=O)C(CCC(F)(F)C(F)(F)F)[S+]([O-])CCC(F)(F)F` (stereo not drawn) [(63)]: no less than 70%, 100% and no less than 90%.
Consider `NC(=O)C(F)(CCC(F)(F)C(F)(F)C(F)(F)F)S(=O)(=O)CCC(F)(F)F` (stereo not drawn) [(91)], for which the pest or weed control at 500 ppm in experiment [1] (24 h) was no less than 70%; in experiment [2], 100%. In addition, in experiment [3], the pest or weed control at 3.5 ppm is no less than 90%.
Turning to `COC(=O)C(C)(CCC(F)(F)C(F)(F)F)SCCC(F)(F)F` (stereo not drawn) [(68)], the pest or weed control at 500 ppm in experiment [1] (setting [4]) was no less than 70%; in experiment [2] (setting [5]), 100%. The pest or weed control at 3.5 ppm in experiment [3] (setting [6]) is no less than 90%.
The matching figures for `CNC(=O)C(C)(CCC(F)(F)C(F)(F)F)S(=O)(=O)CCC(F)(F)F` (stereo not drawn) [(35)]: no less than 70%, 100% and no less than 90%.
The corresponding values for `CC(C#N)(CCCC(F)(F)F)S(=O)(=O)CCC(F)(F)F` (stereo not drawn) [(45)] are no less than 70%, 100% and no less than 90%.
For the molecule `COC(=O)C(C)(CCC(F)(F)C(F)(F)C(F)(F)F)S(=O)(=O)CCC(F)(F)C(F)(F)F` (stereo not drawn) [(52)], the pest or weed control at 500 ppm is no less than 70% in experiment [1] (24 h) and 100% in experiment [2]. Also, in experiment [3], the pest or weed control at 3.5 ppm is no less than 90%.
Regarding `CNC(=O)C(F)(CCC(F)(F)C(F)(F)F)S(=O)(=O)CCC(F)(F)F` (stereo not drawn) [(69)], the pest or weed control at 500 ppm is no less than 70% in experiment [1] (setting [4]) and 100% in experiment [2] (setting [5]). The pest or weed control at 3.5 ppm in experiment [3] (setting [6]) is no less than 90%.
